Source: paper PMC8043142 (Journal of medicinal chemistry, 2021)

How the values were obtained:
[1] = target: disulfide stabilized HIV-1NL4-3 CA hexamer (Human immunodeficiency virus type 1 group M subtype B, UniProt P12493, A146C/E177C/M317A/W316A); test: SPR direct interaction analysis with immobilized CA hexamer; type: binding; details: for kd: SPR, 25 °C, 1:1 binding model
[2] = Metabolic stability in human liver microsomes; details: half-life relative to S-PF-74
[3] = enantiomerically pure compounds

Compound: Cc1[nH]c2ccccc2c1CC(=O)N[C@H](Cc1ccccc1)C(=O)N(C)c1ccc2[nH]ncc2c1 [R-CX16, (R)-N-(1H-Indazol-5-yl)-N-methyl-2-(2-(2-methyl-1H-indol-3-yl)acetamido)-3-phenylpropanamide]
- binding to CA hexamer via SPR (in words) [1, 3]: little to no binding interactions

Compound: Cc1[nH]c2ccccc2c1CC(=O)N[C@@H](Cc1ccccc1)C(=O)N(C)c1ccccc1 [S-PF-74, (S)-N-methyl-2-(2-(2-methyl-1H-indol-3-yl)acetamido)-N,3-diphenylpropanamide, reference compound]
- binding to CA hexamer via SPR (in words) [1, 3]: robust binding
- kd [1, 3]: 2.92 ± 0.111 × 10^−2 s^−1

Compound: Cc1[nH]c2ccccc2c1CC(=O)N[C@@H](Cc1ccccc1)C(=O)N(C)c1ccc2[nH]ncc2c1 [S-CX16, (S)-N-(1H-Indazol-5-yl)-N-methyl-2-(2-(2-methyl-1H-indol-3-yl)acetamido)-3-phenylpropanamide]
- binding to CA hexamer via SPR (in words) [1, 3]: robust binding
- improvement in affinity over S-PF-74 [1, 3]: > 2 fold
- kd [1, 3]: 1.09 ± 0.043 × 10^−2 s^−1
- Fold Increase (over S-PF-74) [2]: 2.0 fold

Compound: CN(C(=O)[C@H](Cc1ccccc1)NC(=O)Cc1c[nH]c2c(N)cccc12)c1ccccc1 [S-CX15, (S)-2-(2-(7-Amino-1H-indol-3-yl)acetamido)-N-methyl-N,3-diphenylpropanamide]
- binding to CA hexamer via SPR (in words) [1, 3]: robust binding
- kd [1, 3]: 6.60 ± 0.328 × 10^−2 s^−1
- Fold Increase (over S-PF-74) [2]: 30.8 fold

Compound: Cc1[nH]c2ccccc2c1CC(=O)NC(Cc1ccccc1)C(=O)N(C)c1ccccc1 (centres unmarked) [PF-74, reference compound]
- kd ([1]; racemic compounds): 2.93 ± 0.182 × 10^−2 s^−1

Compound: CN(C(=O)[C@H](Cc1ccccc1)NC(=O)Cc1n[nH]c2c(N)cccc12)c1ccc2[nH]ncc2c1 [S-CX17, (S)-2-(2-(7-amino-1H-indazol-3-yl)acetamido)-N-(1H-indazol-5-yl)-N-methyl-3-phenylpropanamide]
- binding to CA hexamer via SPR (in words) [1, 3]: robust binding
- kd [1, 3]: 9.66 ± 0.145 × 10^−2 s^−1
- change of antiviral potency relative to parental compound (HIV-1 pseudoviruses; slightly diminished potency): ~3.5 fold
- Fold Increase (over S-PF-74) [2]: 204 fold

Compound: CN(C(=O)[C@@H](Cc1ccccc1)NC(=O)Cc1c[nH]c2c(N)cccc12)c1ccccc1 [R-CX15, (R)-2-(2-(7-Amino-1H-indol-3-yl)acetamido)-N-methyl-N,3-diphenylpropanamide]
- binding to CA hexamer via SPR (in words) [1, 3]: little to no binding interactions

Compound: Cc1[nH]c2ccccc2c1CC(=O)NC(Cc1ccccc1)C(=O)N(C)c1ccc2[nH]ncc2c1 (centres unmarked) [CX16, N-(1H-indazol-5-yl)-N-methyl-2-(2-(2-methyl-1H-indol-3-yl)acetamido)-3-phenylpropanamide]
- kd ([1]; racemic compounds): 1.21 ± 0.037 × 10^−2 s^−1

Compound: CN(C(=O)C(Cc1ccccc1)NC(=O)Cc1n[nH]c2c(N)cccc12)c1ccc2[nH]ncc2c1 (centres unmarked) [CX17, 2-(2-(7-amino-1H-indazol-3-yl)acetamido)-N-(1H-indazol-5-yl)-N-methyl-3-phenylpropanamide]
- IC50 relative to predicted and experimentally determined affinity (HIV-1 pseudoviruses; racemic compound, IC50 higher than affinity): approximately 5 fold

Compound: Cc1[nH]c2ccccc2c1CC(=O)N[C@H](Cc1ccccc1)C(=O)N(C)c1ccccc1 [R-PF-74, (R)-N-methyl-2-(2-(2-methyl-1H-indol-3-yl)acetamido)-N,3-diphenylpropanamide, reference compound]
- binding to CA hexamer via SPR (in words) [1, 3]: little to no binding interactions

Compound: CN(C(=O)[C@@H](Cc1ccccc1)NC(=O)Cc1n[nH]c2c(N)cccc12)c1ccc2[nH]ncc2c1 [R-CX17, (R)-2-(2-(7-amino-1H-indazol-3-yl)acetamido)-N-(1H-indazol-5-yl)-N-methyl-3-phenylpropanamide]
- binding to CA hexamer via SPR (in words) [1, 3]: little to no binding interactions
